Measured values: PMC9364363 (RSC Advances, 2022)
≈ marks a conversion by molar mass, not a printed value. Where two headings read alike, the source gives them in different places.

Experiments:
Mtb H37Ra^lux = assay: microbe, parasite or virus in culture; type: cell-based, Mycobacterium tuberculosis; conditions: for IC50: read-out: Mtb H37Ra^lux IC50; for MIC: read-out: Mtb H37Ra^lux IC90 (MIC)
M. intracellulare = assay: microbe, parasite or virus in culture; type: cell-based, Mycobacterium intracellulare; conditions: Mycobacterium intracellulare, 168 h, read-out: IC50 M. intracellulare
M. avium subsp. avium = assay: microbe, parasite or virus in culture; type: cell-based, Mycobacterium avium subsp. avium; conditions: Mycobacterium avium, 168 h, read-out: IC50 M. avium subsp. avium
M. abscessus = assay: microbe, parasite or virus in culture; type: cell-based, Mycobacterium abscessus; conditions: Mycobacteroides abscessus, 72 h, read-out: IC50 M. abscessus
in vitro = conditions: human
[1] = test system: MRC-5 lung fibroblast cell line
[2] = Mycobacterium tuberculosis, H37RA, 168 h

| Molecule | IC50 (Mtb H37Ra^lux; [2]) [µM] | MIC (Mtb H37Ra^lux; [2]) [µM] | IC50 (M. intracellulare) [µM] | IC50 (M. avium subsp. avium) [µM] | IC50 (M. abscessus) [µM] | CC50 (in vitro) [µM] | T.I. CC50/IC50 [1] | Mtb H37Ra^lux IC90 (MIC) (Mtb H37Ra^lux) [µM] | IC50 (Mtb H37Ra^lux) [µM] |
| --- | --- | --- | --- | --- | --- | --- | --- | --- | --- |
| Cc1nc2sccn2c1C(=O)N1CCN(CCn2cc(C3CC3)nn2)CC1 [IT19, (4-(2-(4-Cyclopropyl-1H-1,2,3-triazol-1-yl)-ethyl)-piperazin-1-yl)(6-methylimidazo-[2,1-b]-thiazol-5-yl)-methanone] | > 128 | > 128 |  |  |  |  |  |  |  |
| Cc1ccc(-n2cc(CN3CCN(C(=O)c4c(C)nc5sccn45)CC3)nn2)cc1C [IT24, (4-((1-(3,4-Dimethylphenyl)-1H-1,2,3-triazol-4-yl)-methyl)-piperazin-1-yl)(6-methylimidazo-[2,1-b]-thiazol-5-yl)-methanone] | 19.8 | 48.8 (≈ 21.2 µg/mL) |  |  |  |  |  |  |  |
| Cc1nc2sccn2c1C(=O)N1CCN(CCn2cc(-c3ccc(C(C)(C)C)cc3)nn2)CC1 [IT02, (4-(2-(4-(4-(tert-Butyl)phenyl)-1H-1,2,3-triazol-1-yl)-ethyl)-piperazin-1-yl)(6-methylimidazo-[2,1-b]-thiazol-5-yl)-methanone] | 5.2 | 12.8 (≈ 6.13 µg/mL) | 119 | 126 | > 128 | 46 | 8.8 |  |  |
| CCCCCCCCCc1cn(CCN2CCN(C(=O)c3c(C)nc4sc5ccccc5n34)CC2)nn1 [IT14, (2-methylbenzo-[d]-imidazo-[2,1-b]-thiazol-3-yl)(4-(2-(4-nonyl-1H-1,2,3-triazol-1-yl)-ethyl)-piperazin-1-yl)-methanone] | 13.1 | 28 (≈ 14.6 µg/mL) |  |  |  |  |  |  |  |
| Cc1nc2sc3ccccc3n2c1C(=O)N1CCN(Cc2cn(-c3ccc(Cl)cc3Cl)nn2)CC1 [IT06, (4-((1-(2,4-Dichlorophenyl)-1H-1,2,3-triazol-4-yl)-methyl)-piperazin-1-yl)(2-methylbenzo-[d]-imidazo-[2,1-b]-thiazol-3-yl)-methanone] | 2.03 | 15.2 (≈ 8.01 µg/mL) |  |  |  |  |  |  |  |
| Cc1nc2sc3ccccc3n2c1C(=O)N1CCN(Cc2cn(-c3cccc(Cl)c3)nn2)CC1 [IT11, (4-((1-(3-Chlorophenyl)-1H-1,2,3-triazol-4-yl)-methyl)-piperazin-1-yl)(2-methylbenzo-[d]-imidazo-[2,1-b]-thiazol-3-yl)-methanone] | 3.86 | 14.5 (≈ 7.11 µg/mL) | 98.8 | 100 | > 128 | 29.4 | 7.6 |  |  |
| Cc1nc2sccn2c1C(=O)N1CCN(Cc2cn(-c3ccc(Br)cc3)nn2)CC1 [IT21, (4-((1-(4-Bromophenyl)-1H-1,2,3-triazol-4-yl)-methyl)-piperazin-1-yl)(6-methylimidazo-[2,1-b]-thiazol-5-yl)-methanone] | 20.7 | 53 (≈ 25.8 µg/mL) |  |  |  |  |  |  |  |
| COc1cccc(-n2cc(CN3CCN(C(=O)c4c(C)nc5sccn45)CC3)nn2)c1 [IT27, (4-((1-(3-Methoxyphenyl)-1H-1,2,3-triazol-4-yl)-methyl)-piperazin-1-yl)(6-methylimidazo-[2,1-b]-thiazol-5-yl)-methanone] | 46 | 98.1 (≈ 42.9 µg/mL) |  |  |  |  |  |  |  |
| Cc1nc2sccn2c1C(=O)N1CCN(CCn2cc(CSc3nc4ccccc4[nH]3)nn2)CC1 [IT04, (4-(2-(4-(((1H-Benzo-[d]-imidazole-2-yl)-thio)-methyl)-1H-1,2,3-triazol-1-yl)-ethyl)-piperazin-1-yl)(6-methylimidazo-[2,1-b]-thiazol-5-yl)-methanone] | 3.94 | 14.6 (≈ 7.41 µg/mL) | > 128 | > 128 | > 128 | > 128 | 32.5 |  |  |
| Cc1nc2sc3ccccc3n2c1C(=O)N1CCN(Cc2cn(-c3cccc([N+](=O)[O-])c3)nn2)CC1 [IT08, (2-Methylbenzo-[d]-imidazo-[2,1-b]-thiazol-3-yl)(4-((1-(3-nitrophenyl)-1H-1,2,3-triazol-4-yl)-methyl)-piperazin-1-yl)-methanone] | 2.96 | 11.8 (≈ 5.94 µg/mL) | > 128 | > 128 | > 128 | > 128 | 43.2 |  |  |
| Cc1ccc(-n2cc(CN3CCN(C(=O)c4c(C)nc5sc6ccccc6n45)CC3)nn2)cc1C [IT09, (4-((1-(3,4-Dimethylphenyl)-1H-1,2,3-triazol-4-yl)-methyl)-piperazin-1-yl)(2-methylbenzo-[d]-imidazo-[2,1-b]-thiazol-3-yl)-methanone] | 3.46 | 13.5 (≈ 6.55 µg/mL) | > 128 | > 128 | > 128 | > 128 | 37.0 |  |  |
| CC/C(=C(\c1ccccc1)c1ccc(OCCN(C)C)cc1)c1ccccc1 [Tamoxifen, reference compound] |  |  |  |  |  | 12.4 |  |  |  |
| COc1cccc(-n2cc(CN3CCN(C(=O)c4c(C)nc5sc6ccccc6n45)CC3)nn2)c1 [IT07, (4-((1-(3-Methoxyphenyl)-1H-1,2,3-triazol-4-yl)-methyl)-piperazin-1-yl)(2-methylbenzo-[d]-imidazo-[2,1-b]-thiazol-3-yl)-methanone] | 7.27 | 15.4 (≈ 7.49 µg/mL) |  |  |  |  |  |  |  |
| Cc1nc2sc3ccccc3n2c1C(=O)N1CCN(Cc2cn(-c3ccc([N+](=O)[O-])cc3)nn2)CC1 [IT10, (2-Methylbenzo-[d]-imidazo-[2,1-b]-thiazol-3-yl)(4-((1-(4-nitrophenyl)-1H-1,2,3-triazol-4-yl)-methyl)-piperazin-1-yl)-methanone] | 2.32 | 7.05 (≈ 3.54 µg/mL) | > 128 | > 128 | > 128 | > 128 | 55.2 |  |  |
| (4-(2-(4-((5-Chloropyridin-2-yl)oxy)-1H-1,2,3-triazol-1-yl)-ethyl)-piperazin-1-yl)(2-methylbenzo-[d]-imidazo-[2,1-b]-thiazol-3-yl)-methanone [IT17] |  |  |  |  |  |  |  | 115.57 | 19.7 |
| Cc1nc2sc3ccccc3n2c1C(=O)N1CCN(CCn2cc(-c3ccccc3)nn2)CC1 [IT15, (2-Methylbenzo-[d]-imidazo-[2,1-b]-thiazol-3-yl)(4-(2-(4-phenyl-1H-1,2,3-triazol-1-yl)-ethyl)-piperazin-1-yl)-methanone] | 12.2 | 27.2 (≈ 12.8 µg/mL) |  |  |  |  |  |  |  |
| Cc1nc2sccn2c1C(=O)N1CCN(Cc2cn(-c3ccc([N+](=O)[O-])cc3)nn2)CC1 [IT25, (6-Methylimidazo-[2,1-b]-thiazol-5-yl)(4-((1-(4-nitrophenyl)-1H-1,2,3-triazol-4-yl)-methyl)-piperazin-1-yl)-methanone] | 23.1 | 51.4 (≈ 23.2 µg/mL) |  |  |  |  |  |  |  |
| Cc1nc2sccn2c1C(=O)N1CCN(Cc2cn(-c3ccc(F)c(Cl)c3)nn2)CC1 [IT22, (4-((1-(3-Chloro-4-fluorophenyl)-1H-1,2,3-triazol-4-yl)-methyl)-piperazin-1-yl)(6-methylimidazo-[2,1-b]-thiazol-5-yl)-methanone] | 5.28 | 57.8 (≈ 26.6 µg/mL) |  |  |  |  |  |  |  |
| Cc1nc2sc3ccccc3n2c1C(=O)N1CCN(CCn2cc(-c3ccc(C(C)(C)C)cc3)nn2)CC1 [IT13, (4-(2-(4-(4-(tert-Butyl)-phenyl)-1H-1,2,3-triazol-1-yl)-ethyl)-piperazin-1-yl)(2-methylbenzo-[d]-imidazo-[2,1-b]-thiazol-3-yl)-methanone] | 3.19 | 7.24 (≈ 3.82 µg/mL) | > 128 | 17.1 | > 128 | 43.7 | 13.7 |  |  |
| Cc1nc2sccn2c1C(=O)N1CCN(Cc2cn(-c3cccc([N+](=O)[O-])c3)nn2)CC1 [IT23, (6-Methylimidazo-[2,1-b]-thiazol-5-yl)(4-((1-(3-nitrophenyl)-1H-1,2,3-triazol-4-yl)-methyl)-piperazin-1-yl)-methanone] | 43.8 | 84.8 (≈ 38.4 µg/mL) |  |  |  |  |  |  |  |
| Cc1nc2sccn2c1C(=O)N1CCN(Cc2cn(-c3ccccc3Cl)nn2)CC1 [IT26, (4-((1-(2-Chlorophenyl)-1H-1,2,3-triazol-4-yl)-methyl)-piperazin-1-yl)(6-methylimidazo-[2,1-b]-thiazol-5-yl)-methanone] | 30.2 | 62.1 (≈ 27.5 µg/mL) |  |  |  |  |  |  |  |
| CCCCc1cn(CCN2CCN(C(=O)c3c(C)nc4sccn34)CC2)nn1 [IT01, (4-(2-(4-Butyl-1H-1,2,3-triazol-1-yl)-ethyl)-piperazin-1-yl)(6-methylimidazo-[2,1-b]-thiazol-5-yl)-methanone] | 6.12 | 52 (≈ 20.9 µg/mL) |  |  |  |  |  |  |  |
| CCCCc1cn(CCN2CCN(C(=O)c3c(C)nc4sc5ccccc5n34)CC2)nn1 [IT12, (4-(2-(4-Butyl-1H-1,2,3-triazol-1-yl)-ethyl)-piperazin-1-yl)(2-methylbenzo-[d]-imidazo-[2,1-b]-thiazol-3-yl)-methanone] | 43.7 | 62.8 (≈ 28.3 µg/mL) |  |  |  |  |  |  |  |
| Cc1nc2sc3ccccc3n2c1C(=O)N1CCN(CCn2cc(C3CC3)nn2)CC1 [IT18, (4-(2-(4-Cyclopropyl-1H-1,2,3-triazol-1-yl)-ethyl)-piperazin-1-yl)(2-methylbenzo-[d]-imidazo-[2,1-b]-thiazol-3-yl)-methanone] | 29.1 | 63.8 (≈ 27.8 µg/mL) |  |  |  |  |  |  |  |
| Cc1nc2sccn2c1C(=O)N1CCN(CCn2cc(COc3ccc(Cl)cn3)nn2)CC1 [IT05, (4-(2-(4-(((5-Chloropyridin-2-yl)-oxy)-methyl)-1H-1,2,3-triazol-1-yl)ethyl)-piperazin-1-yl)(6-methylimidazo-[2,1-b]-thiazol-5-yl)-methanone] | 49.6 | > 128 |  |  |  |  |  |  |  |
| Cc1nc2sccn2c1C(=O)N1CCN(CCn2cc(-c3ccccc3)nn2)CC1 [IT20, (6-Methylimidazo-[2,1-b]-thiazol-5-yl)(4-(2-(4-phenyl-1H-1,2,3-triazol-1-yl)-ethyl)-piperazin-1-yl)-methanone] | 20.6 | 54.9 (≈ 23.2 µg/mL) |  |  |  |  |  |  |  |
| NNC(=O)c1ccncc1 [INH, isoniazid, reference compound] | 0.04 | 0.09 (≈ 0.0123 µg/mL) |  |  |  |  |  |  |  |
